Patent US8097422B2, “Kir channel modulators” (Salk Institute for Biological Studies, priority 2007, dated 2012)
Residue numbers refer to the chain shown, from its start.

Legend:
Type in all cases: cell-based
GIRK2 PIP channel = biological target: T1, GIRK2 PIP channel (Mus musculus, UniProt P48542, D228N/I234L/N231K); assay: whole-cell patch clamp, GIRK2 PIP chimeric channel; settings: equimolar alcohol series (50 mM)
T1 construct: expressed in transfected cells; host or cells: HEK293 / HEK293T
T1 sequence (P48542 1-425 D228N/N231K/I234L): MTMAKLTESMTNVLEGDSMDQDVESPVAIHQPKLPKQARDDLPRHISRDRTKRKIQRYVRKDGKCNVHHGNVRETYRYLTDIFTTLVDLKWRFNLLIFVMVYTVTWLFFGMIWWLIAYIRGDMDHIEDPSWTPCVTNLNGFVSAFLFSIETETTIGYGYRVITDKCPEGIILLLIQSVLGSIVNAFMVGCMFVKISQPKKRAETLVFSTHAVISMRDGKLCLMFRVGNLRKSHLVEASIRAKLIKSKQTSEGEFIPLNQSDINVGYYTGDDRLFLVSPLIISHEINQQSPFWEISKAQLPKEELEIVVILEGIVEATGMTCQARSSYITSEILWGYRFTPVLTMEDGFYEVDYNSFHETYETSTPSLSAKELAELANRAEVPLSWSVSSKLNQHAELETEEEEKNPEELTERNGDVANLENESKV
Protocol: To test whether this sensitivity to inhibition would be altered by mutation at the MPD-bound hydrophobic pocket, Leu257 was mutated to Trp for this channel.
HEK 293T cells were cultured in DMEM supplemented with 10% FBS, and 1× Glutamax (Invitrogen) in a humidified 37° incubator with 5% CO2. Cells were plated in a 12 well dish, and were transiently transfected using Lipofectamine 2000 (Invitrogen). After 12-24 hrs, cells were re-plated to 12-mm glass coverslips coated with poly-D-Lysine (20 microgram/ml).
HEK293 cells were transfected with 0.2 micrograms of channel cDNA. The cells were co-transfected with 0.04 micrograms of eYFP cDNA to identify transfected cells. 0.8 micrograms of Muscarinic Receptor 2 (M2R) was also co-transfected for experiments with Carbachol. For experiments with and without m-phosducin, 0.8 ug of m-phosducin cDNA was used versus a PCDNA3.1 vector control.
Whole-cell patch clamp recordings were performed 24-72 hrs after transfection. Borosilicate glass electrodes (Warner Instruments) of 5-7 milliohms filled with intracellular solution (130 mM KCl, 20 mM NaCl, 5 mM EGTA, 2.56 mM K2ATP, 5.46 mM MgCl2, 0.30 mM Li2GTP, and 10 mM HEPES (pH 7.4)) was used. Membrane currents were recorded using Axopatch 200B (Axon Instruments) amplifier, adjusted electronically for cell capacitance and series resistance (80-100%), filtered at 1 kHz with an 8-pole Bessel filter and digitized at 5 kHz with a Digidata 1200 interface (Axon Instruments). The cells rapidly perfused with a 20 mM K^+ (20K) solution (20 mM KCl, 140 mM NaCl, 0.5 mM CaCl2, 2 mM MgCl2 and 10 mM HEPES (pH7.4)). Alcohols, 5 μM Carbachol, and 1 mM BaCl2 (diluted in 20K solution) were applied from outside the cell with the rapid perfusion system (Warner Instruments). Whole-cell currents were measured using a ramp protocol that holds at −40 mV, steps to −100 mV then ramps to +50 mV and repeats every 2 seconds. Current-voltage relationships also were obtained from the ramp protocol. This protocol was used to measure the inwardly rectifying currents at −100 mV and to ensure stability of recording by monitoring a reversal potential and inward rectification. Current density was measured by dividing inward current at −100 mV by membrane capacitance that was compensated during the recording. Basal currents were measured as the Ba^++ blocked inward currents at −100 mV. Alcohol and Carbachol modulated currents were measured by averaging two consecutive current readings upon reaching steady state, and subtracting the averaged basal current before and after the application of modulator. Pooled data are presented as Mean±SEM and evaluated for statistical significance by a 1-way ANOVA, followed by Bonferroni's multiple comparison post-hoc test.

[1] = biological target: T2, GIRK4* L252W mutant channel (Rattus norvegicus, UniProt P48548, L252W/S143T); assay: whole-cell patch clamp, GIRK4* L252W mutant channel; settings: for modulation of GIRK4* L252W mutant channel, percentage change from basal (negative = inhibition): n=8
T2 construct: expressed in transfected cells; host or cells: HEK293 / HEK293T
T2 sequence (P48548 1-419 S143T/L252W): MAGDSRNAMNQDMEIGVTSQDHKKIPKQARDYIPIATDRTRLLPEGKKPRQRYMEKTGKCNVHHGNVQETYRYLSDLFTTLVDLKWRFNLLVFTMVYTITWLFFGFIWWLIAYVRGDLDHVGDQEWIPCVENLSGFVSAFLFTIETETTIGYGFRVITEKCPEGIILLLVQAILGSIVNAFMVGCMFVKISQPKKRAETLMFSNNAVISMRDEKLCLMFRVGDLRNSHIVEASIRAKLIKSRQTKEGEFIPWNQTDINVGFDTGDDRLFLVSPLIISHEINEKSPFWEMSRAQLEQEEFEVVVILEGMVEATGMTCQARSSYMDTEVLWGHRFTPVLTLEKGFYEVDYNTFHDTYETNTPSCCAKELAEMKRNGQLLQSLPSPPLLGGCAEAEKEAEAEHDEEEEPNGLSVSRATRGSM
Protocol: (§1) Point mutations were introduced by Quickchange site directed mutagenesis kit (Stratagene). The GIRK2 PIP mutant was generated by overlap-PCR method. […] Mutations were confirmed by automated DNA sequencing methods. […] Cells were plated in a 12 well dish, and were transiently transfected using Lipofectamine 2000 (Invitrogen). After 12-24 hrs, cells were re-plated to 12-mm glass coverslips coated with poly-D-[…] microgram/ml). […] The cells were co-transfected with 0.04 micrograms of eYFP cDNA to identify transfected cells. 0.8 micrograms of Muscarinic Receptor 2 (M2R) was also co-transfected for experiments with Carbachol. […] Whole-cell patch clamp recordings were performed 24-72 hrs after transfection. […] Alcohols, 5 μM Carbachol, and 1 mM BaCl2 (diluted in 20K solution) were applied from outside the cell with the rapid perfusion system (Warner Instruments). […] Current-voltage relationships also were obtained from the ramp protocol. This protocol was used to measure the inwardly rectifying currents at -100 mV and to ensure stability of recording by monitoring a reversal potential and inward rectification. […] Alcohol and Carbachol modulated currents were measured by averaging two consecutive current readings upon reaching steady state, and subtracting the averaged basal current before and after the application of modulator.

[2] = biological target: T3, GIRK4* Leu252 to Tyr mutant channel (Rattus norvegicus, UniProt P48548, L252Y/S143T); assay: whole-cell patch clamp, GIRK4* L252Y mutant channel; settings: for activation of GIRK4* Leu252 to Tyr mutant, percentage change from basal: n=8
T3 construct: expressed in transfected cells; host or cells: HEK293 / HEK293T
T3 sequence (P48548 1-419 S143T/L252Y): T2 sequence (P48548 1-419 S143T/L252W) with W252Y
Protocol: as §1

CC(O)CC(C)(C)O (racemic) [MPD, 2-methyl-2,4-pentanediol]
inhibition of GIRK2 PIP channel, percentage inhibition (GIRK2 PIP channel): −80±2%

1-butanol [1-BuOH]
inhibition of GIRK2 PIP channel, percentage inhibition (GIRK2 PIP channel): −97±1%

C[N+](C)(C)CCOC(N)=O [Carbachol]
Carb (G-protein mediated) activation, GIRK4* L252 Trp ([1]; 5 μM Carbachol): 23±3%
Carb (G-protein mediated) activation, GIRK4* L252 Tyr ([2]; 5 μM Carbachol): 110±14%

1-propanol [1-PrOH]
modulation of GIRK4* L252W mutant channel, percentage change from basal (negative = inhibition) [1]: −19±2%
inhibition of GIRK2 PIP channel, percentage inhibition (GIRK2 PIP channel): −87±2%
activation of GIRK4* Leu252 to Tyr mutant, percentage change from basal [2]: 15±3%

CCO [EtOH, ethanol]
modulation of GIRK4* L252W mutant channel, percentage change from basal (negative = inhibition) [1]: 5±2%
inhibition of GIRK2 PIP channel, percentage inhibition (GIRK2 PIP channel): −18±2%
activation of GIRK4* Leu252 to Tyr mutant, percentage change from basal [2]: 20±3%
